Results on 28 compounds are retold here after patent US20120121540A1 (priority 2007, published 2012).

The experiment in a line: HCV replicon assay (luciferase reporter, ET cell line). The note with it: Hepatitis C virus, HCV replicon luciferase activity in ET cells. The format is cell-based. Here is the method:
A cell line, ET (Huh-lucubineo-ET) is used for screening of compounds for inhibiting HCV RNA dependent RNA polymerase. The ET cell line is stably transfected with RNA transcripts harboring a I389 luc-ubi-neo/NS3-3′/ET; replicon with firefly luciferase-ubiquitin-neomycin phosphotransferase fusion protein and EMCV-IRES driven NS3-5B polyprotein containing the cell culture adaptive mutations (E1202G; T1280I; K1846T) (Krieger at al, 2001 and unpublished). The ET cells are grown in DMEM (Dulbeco's Modified Eagle's Medium), supplemented with 10% fetal calf serum, 2 mM Glutamine, Penicillin (100 IU/mL)/Streptomycin (100 μg/mL), 1× nonessential amino acids, and 250 μg/mL G418 (“Geneticin”). They are all available through Life Technologies (Bethesda, Md.). The cells are plated at 0.5−1.0×10^4 cells/well in the 96 well plates and incubated for 24 hrs before adding test compound. The compounds are added to the cells to achieve a final concentration of 0.1 nM to 50 μm and a final DMSO (dimethylsulfoxide) concentration of 0.5%. Luciferase activity is measured 48-72 hours later by adding a lysis buffer and the substrate (Catalog number Glo-lysis buffer E2661 and Bright-Glo luciferase system E2620 Promega, Madison, Wis.). Cells should not be too confluent during the assay. Percent inhibition of replication data is plotted relative to no compound control. Under the same condition, cytotoxicity of the compounds are determined using cell proliferation reagent, WST-1 (Roche, Germany). The compounds showing antiviral activities, but no significant cytotoxicities are chosen to determine EC50 and TC50. For these determinations, a 10 point, 2-fold serial dilution for each compound was used, which spans a concentration range of 1000 fold. EC50 and similarly TC50 values were calculated by fitting % inhibition at each concentration to the following equation:
% inhibition=100%/[(EC50/[I])^b+1]
where b is Hill's coefficient.
% inhibition values at a specific concentration, […] for example, can also be derived from the equation above.
A general note: Replicon systems follow genome replication, usually without infectious particles.

For `COC(=O)C(NC(=O)c1nc2c(C(F)(F)F)cc(-c3ccco3)cn2c1Cl)c1cccs1` (stereo not shown) [Compound 166, [(3-Chloro-6-furan-2-yl-8-trifluoromethyl-imidazo[1,2-a]pyridine-2-carbonyl)-amino]-thiophen-2-yl-acetic acid methyl ester], at 10 µM the inhibition was 49.1%.

Take `O=C(NCC1CC1)c1nc2c(C(F)(F)F)cc(-c3ccco3)cn2c1Cl` [Compound 169, 3-Chloro-6-furan-2-yl-8-trifluoromethyl-imidazo[1,2-a]pyridine-2-carboxylic acid cyclopropylmethyl-amide]: testing at 10 µM gave an inhibition of 50.3%.

Take `O=C(NCC1CCCCC1)c1nc2c(C(F)(F)F)cc(-c3ccco3)cn2c1Cl` [Compound 170, 3-Chloro-6-furan-2-yl-8-trifluoromethyl-imidazo[1,2-a]pyridine-2-carboxylic acid cyclohexylmethyl-amide]: at 10 µM the inhibition was 58%.

`O=C(NC(C(=O)NCCCN1CCOCC1)c1cccs1)c1nc2c(C(F)(F)F)cc(-c3ccco3)cn2c1Cl` (stereo not shown) [Compound 171, 3-Chloro-6-furan-2-yl-8-trifluoromethyl-imidazo[1,2-a]pyridine-2-carboxylic acid [(3-morpholin-4-yl-propylcarbamoyl)-thiophen-2-yl-methyl]-amide]: the inhibition (commonly the relative decrease from the control value, in per cent) at 10 µM is 99.4%.

In turn, `CN(C)CCNC(=O)C(NC(=O)c1nc2c(C(F)(F)F)cc(-c3ccco3)cn2c1Cl)c1cccs1` (stereo not shown) [Compound 172, 3-Chloro-6-furan-2-yl-8-trifluoromethyl-imidazo[1,2-a]pyridine-2-carboxylic acid [(2-dimethylamino-ethylcarbamoyl)-thiophen-2-yl-methyl]-amide] yielded an inhibition at 10 µM of 100%.

For the compound `O=C(NCc1ccsc1)c1nc2c(C(F)(F)F)cc(-c3ccco3)cn2c1Cl` [Compound 173, 3-Chloro-6-furan-2-yl-8-trifluoromethyl-imidazo[1,2-a]pyridine-2-carboxylic acid (thiophen-3-ylmethyl)-amide], testing at 10 µM gave an inhibition of 95.2%.

Turning to `O=C(NCc1ccccc1)c1nc2c(C(F)(F)F)cc(-c3ccco3)cn2c1Cl` [Compound 174, 3-Chloro-6-furan-2-yl-8-trifluoromethyl-imidazo[1,2-a]pyridine-2-carboxylic acid benzylamide], the inhibition at 10 µM was determined as 85.7%.

Take `O=C(NCc1cccs1)c1nc2c(C(F)(F)F)cc(-c3cccs3)cn2c1Cl` [Compound 175, 3-Chloro-6-thiophen-2-yl-8-trifluoromethyl-imidazo[1,2-a]pyridine-2-carboxylic acid (thiophen-2-ylmethyl)-amide]: 10 µM produced 99.4% inhibition.

In turn, `O=C(NCc1cccs1)c1nc2c(C(F)(F)F)cc(-c3ccc(Cl)s3)cn2c1Cl` [Compound 176, 3-Chloro-6-(5-chloro-thiophen-2-yl)-8-trifluoromethyl-imidazo[1,2-a]pyridine-2-carboxylic acid (thiophen-2-ylmethyl)-amide] returned an inhibition at 10 µM of 96.8%.

In turn, `O=C(NCc1cccs1)c1nc2c(C(F)(F)F)cc(-c3ccccc3)cn2c1Cl` [Compound 177, 3-Chloro-6-phenyl-8-trifluoromethyl-imidazo[1,2-a]pyridine-2-carboxylic acid (thiophen-2-ylmethyl)-amide] showed an inhibition at 10 µM of 93.2%.

With `O=C(NCc1cccs1)c1nc2c(C(F)(F)F)cc(-c3ccc(F)cc3)cn2c1Cl` [Compound 178, 3-Chloro-6-(4-fluoro-phenyl)-8-trifluoromethyl-imidazo[1,2-a]pyridine-2-carboxylic acid (thiophen-2-ylmethyl)-amide], the inhibition at 10 µM was 75.2%.

`O=C(NCc1ccccc1C(F)(F)F)c1nc2c(C(F)(F)F)cc(-c3ccco3)cn2c1Cl` [Compound 179, 3-Chloro-6-furan-2-yl-8-trifluoromethyl-imidazo[1,2-a]pyridine-2-carboxylic acid 2-trifluoromethyl-benzylamide] had an inhibition at 10 µM of 37.5%.

`O=C(NCc1cccc(C(F)(F)F)c1)c1nc2c(C(F)(F)F)cc(-c3ccco3)cn2c1Cl` [Compound 180, 3-Chloro-6-furan-2-yl-8-trifluoromethyl-imidazo[1,2-a]pyridine-2-carboxylic acid 3-trifluoromethyl-benzylamide] yielded an inhibition at 10 µM of 20.4%.

In turn, `O=C(NCc1ccc(C(F)(F)F)cc1)c1nc2c(C(F)(F)F)cc(-c3ccco3)cn2c1Cl` [Compound 181, 3-Chloro-6-furan-2-yl-8-trifluoromethyl-imidazo[1,2-a]pyridine-2-carboxylic acid 4-trifluoromethyl-benzylamide] showed an inhibition at 10 µM of 48.2%.

On to `O=C(NCc1nccs1)c1nc2c(C(F)(F)F)cc(-c3ccco3)cn2c1Cl` [Compound 182, 3-Chloro-6-furan-2-yl-8-trifluoromethyl-imidazo[1,2-a]pyridine-2-carboxylic acid (thiazol-2-ylmethyl)-amide], for which the inhibition at 10 µM is 80.8%.

As for `O=C(NCC1CCCO1)c1nc2c(C(F)(F)F)cc(-c3ccco3)cn2c1Cl` (stereo not shown) [Compound 184, 3-Chloro-6-furan-2-yl-8-trifluoromethyl-imidazo[1,2-a]pyridine-2-carboxylic acid (tetrahydro-furan-2-ylmethyl)-amide], the inhibition at 10 µM stood at 84.4%.

Turning to `O=C(NCCc1cccs1)c1nc2c(C(F)(F)F)cc(-c3ccco3)cn2c1Cl` [Compound 185, 3-Chloro-6-furan-2-yl-8-trifluoromethyl-imidazo[1,2-a]pyridine-2-carboxylic acid (2-thiophen-2-yl-ethyl)-amide], 10 µM produced 95.7% inhibition.

For the compound `O=C(c1nc2c(C(F)(F)F)cc(-c3ccco3)cn2c1Cl)N1CCC(c2ccccc2)C1` (stereo not shown) [Compound 186, (3-Chloro-6-furan-2-yl-8-trifluoromethyl-imidazo[1,2-a]pyridin-2-yl)-(3-phenyl-pyrrolidin-1-yl)-methanone], 10 µM produced 96% inhibition.

`O=C(NC1CCc2ccccc21)c1nc2c(C(F)(F)F)cc(-c3ccco3)cn2c1Cl` (stereo not shown) [Compound 187, 3-Chloro-6-furan-2-yl-8-trifluoromethyl-imidazo[1,2-a]pyridine-2-carboxylic acid indan-1-ylamide] returned an inhibition at 10 µM of 34.2%.

As for `O=C(c1nc2c(C(F)(F)F)cc(-c3ccco3)cn2c1Cl)N1CCCC1c1cccs1` (stereo not shown) [Compound 189, (3-Chloro-6-furan-2-yl-8-trifluoromethyl-imidazo[1,2-a]pyridin-2-yl)-(2-thiophen-2-yl-pyrrolidin-1-yl)-methanone], testing at 10 µM gave an inhibition of 97.3%.

On to `COc1ccccc1CNC(=O)c1nc2c(C(F)(F)F)cc(-c3ccco3)cn2c1Cl` [Compound 190, 3-Chloro-6-furan-2-yl-8-trifluoromethyl-imidazo[1,2-a]pyridine-2-carboxylic acid 2-methoxy-benzylamide], for which testing at 10 µM gave an inhibition of 68.1%.

The compound `COc1cccc(CNC(=O)c2nc3c(C(F)(F)F)cc(-c4ccco4)cn3c2Cl)c1` [Compound 191, 3-Chloro-6-furan-2-yl-8-trifluoromethyl-imidazo[1,2-a]pyridine-2-carboxylic acid 3-methoxy-benzylamide] showed an inhibition at 10 µM of 2.3%.

The compound `COc1ccc(CNC(=O)c2nc3c(C(F)(F)F)cc(-c4ccco4)cn3c2Cl)cc1` [Compound 192, 3-Chloro-6-furan-2-yl-8-trifluoromethyl-imidazo[1,2-a]pyridine-2-carboxylic acid 4-methoxy-benzylamide] yielded an inhibition at 10 µM of 73.9%.

Turning to `O=C(NCc1cccs1)c1nc2c(C(F)(F)F)cc(-c3ccccc3)cn2c1C(F)(F)F` [Compound 193, 6-Phenyl-3,8-bis-trifluoromethyl-imidazo[1,2-a]pyridine-2-carboxylic acid (thiophen-2-ylmethyl)-amide], the inhibition at 10 µM worked out at 82.3%.

In turn, `CCc1c(C(=O)NCc2cccs2)nc2c(C(F)(F)F)cc(-c3ccco3)cn12` [Compound 194, 3-Ethyl-6-furan-2-yl-8-trifluoromethyl-imidazo[1,2-a]pyridine-2-carboxylic acid (thiophen-2-ylmethyl)-amide] yielded an inhibition at 10 µM of 89.5%.

Compound `O=C(NCc1cccs1)c1nc2c(C(F)(F)F)cc(-c3cccc(F)c3)cn2c1Cl` [Compound 196, 3-Chloro-6-(3-fluoro-phenyl)-8-trifluoromethyl-imidazo[1,2-a]pyridine-2-carboxylic acid (thiophen-2-ylmethyl)-amide] returned an inhibition at 10 µM of 94%.

`O=C(NCc1cccs1)c1nc2c(C(F)(F)F)cc(-c3ccccc3F)cn2c1Cl` [Compound 197, 3-Chloro-6-(2-fluoro-phenyl)-8-trifluoromethyl-imidazo[1,2-a]pyridine-2-carboxylic acid (thiophen-2-ylmethyl)-amide] showed an inhibition at 10 µM of 90.6%.

Take `O=C(NCc1cccs1)c1nc2c(C(F)(F)F)cc(-c3ccc(F)c(F)c3)cn2c1Cl` [Compound 198, 3-Chloro-6-(3,4-difluoro-phenyl)-8-trifluoromethyl-imidazo[1,2-a]pyridine-2-carboxylic acid (thiophen-2-ylmethyl)-amide]: at 10 µM the inhibition was 83.2%.
